Data set [1] relates to systemic blood pressure. As to the kind of experiment: Reduction of systemic blood pressure (Experiment 2(a)). The note with it: intravenous; for inhibition in vivo at 0.025 mg/kg: Canis lupus familiaris, Table 2, read-out: Average percent reduction in blood pressure; for Average low pressure retention time: Table 3. The format is in vivo, beagle (anesthetized). The method, then:
A beagle was anesthetized by intravenous injection of sodium pentobarbital and under artificial respiration an incision was made in the chest.
1. Systemic blood pressure (SBP): The SBP was measured by a pressure transducer that was connected to a catheter inserted into the right femoral artery.

The test system of data set [2] is heart rate. In words: Change in heart rate (Experiment 2(b)). The format is in vivo, beagle (anesthetized). The note with it: for Percent change in heart rate: Table 4, Experiment 2; for effect on heart rate (time course): in words. The protocol:
A beagle was anesthetized by intravenous injection of sodium pentobarbital and under artificial respiration an incision was made in the chest. The various actions of Compounds 1, 2, 3, 5 and 7 of the present invention were checked by the following procedures:
2. Heart rate (HR): The HR was measured by a cardiotachometer using the pulse wave of blood pressure as trigger pulse.
As for the compounds of the present invention, a temporary increase was followed by a gradual decrease which started almost at the same time when a second phase reduction in blood pressure occurred (see FIG. 1).

Data set [3] in a line: Acute toxicity, oral administration to rats for fourteen consecutive days. Type of data set: in vivo, male SD strain rats. The note with it: 400 mg/Kg, as hydrochloride, male SD rats. The method, then:
The acute toxicity of Compounds Preparation Nos. 1 to 15 was examined by the oral administration of them to male SD strain rats (five rats per group) for fourteen consecutive days. All compounds had low toxicity and none supressed weight gain. No rat died upon administration of Compound 1 or 2 (both as hydrochloride) in a dose of 400 mg/Kg.

The test system of data set [4] is systemic blood pressure. In words: Neurogenic hypertension by artery obstruction/stricture (Experiment 3). The format is in vivo, beagle (hypertensive). Conditions: intravenous, 25 μg/Kg; FIG. 2, FIG. 3. The protocol: Hypertension was induced in a beagle by exciting the sympathetic nerve due to an obstruction of the bilateral vertebral artery and right common carotid artery, as well as a stricture of the left common carotid artery. The beagle was treated intravenously with 25 μg/Kg of Compounds 1 and 2.

Data set [5] has as its system blood pressure. In words: Blood pressure in unanesthetized SHR rats (Experiment 4). Type of data set: in vivo. The note with it: oral, 10 mg/Kg; for blood pressure after dosing: 180±5.0 mmHg just before administration. The method, then: Unanesthetized SHR rats (five rats per group) were administered orally 10 mg/Kg of Compound 1.

Molecules are shown by their SMILES. Counter-ions that a name gives are not always drawn.

For `NNc1nncc2ccccc12` [A, hydralazine hydrochloride, reference compound], in data set [1] (25 μg/Kg, in words), the “significant reduction in blood pressure” value was “did not exhibit significant reduction in blood pressure”.
With `CCOC(=O)CCCCCN1CCN(c2ccccc2OC)CC1` [Compound 2, 1-(5-ethoxycarbonylpentyl)-4-(o-methoxyphenyl)piperazine], in data set [1] (25 μg/kg), the inhibition in vivo at 0.025 mg/kg came to 22.4% and the “Average low pressure retention time” value amounted to 20.0 min. Further, the “change in systemic blood pressure (time course, FIG. 1)” value (“change in systemic blood pressure” below) in data set [1] (25 μg/kg, in words) was “the initial temporary reduction was followed by a reduction in the second phase, and the systemic blood pressure was maintained low thereafter”. For the same compound, in data set [2], the “Percent change in heart rate” value was -1.6%. Besides, the deaths upon administration result in data set [3] was “No rat died”. Further, in data set [4], the “extension of low pressure retention time, hypertensive vs normal beagle” value is recorded as “more effective”; the “reduction of heart rate, hypertensive vs normal beagle” value is recorded as “more effective”; the “reduction of systemic blood pressure, hypertensive vs normal beagle” value was “more effective”.
Regarding `COc1ccccc1N1CCN(CCCCCCO)CC1` [C, reference compound], in data set [1] (25 μg/kg), the inhibition in vivo at 0.025 mg/kg was 12.6% and the “Average low pressure retention time” value is on record as 14.4 min. The “Percent change in heart rate” value in data set [2] was 8.1%.
For the compound `CCOC(=O)CCCCN1CCN(c2ccccc2OC)CC1` [Compound 7, 1-(4-ethoxycarbonylbutyl)-4-(o-methoxyphenyl)piperazine], in data set [1] (25 μg/kg), the inhibition in vivo at 0.025 mg/kg was found to be 19.1% and the “Average low pressure retention time” value came to 13.4 min. For the same compound, the “change in systemic blood pressure” value in data set [1] (25 μg/kg, in words) was “the initial temporary reduction was followed by a reduction in the second phase, and the systemic blood pressure was maintained low thereafter”. In addition, the “Percent change in heart rate” value in data set [2] turned out to be 13.2%.
Regarding `CCOC(=O)CCCCCCN1CCN(c2ccccc2OC)CC1` [Compound 1, 1-(6-ethoxycarbonylhexyl)-4-(o-methoxyphenyl)piperazine], in data set [1] (25 μg/kg), the inhibition in vivo at 0.025 mg/kg was found to be 25.5% and the “Average low pressure retention time” value came out at 47.3 min. Besides, in data set [1] (25 μg/kg, in words), the “change in systemic blood pressure” value was “the initial temporary reduction was followed by a reduction in the second phase, and the systemic blood pressure was maintained low thereafter”; the “period of maintained low blood pressure compared with the others” value is “maintained the blood pressure at low level for a longer period than did the others”. Besides, the “Percent change in heart rate” value in data set [2] is recorded as -9.6%. Moreover, the deaths upon administration entry in data set [3] was “No rat died”. Also, in data set [5] (1 h), the “blood pressure after dosing” value was 127±11.6 mmHg. The “blood pressure after dosing” value in data set [5] (2 h) stood at 137±7.6 mmHg. In addition, the “duration of reduced blood pressure” value in data set [5] (in words) is “maintained at the reduced level for a satisfactorily long time”. For the same compound, in data set [4], the “extension of low pressure retention time, hypertensive vs normal beagle” value is given as “more effective”; the “reduction of heart rate, hypertensive vs normal beagle” value was “more effective”; the “reduction of systemic blood pressure, hypertensive vs normal beagle” value is recorded as “more effective”.
For `CCOC(=O)CCCCCCN1CCN(c2ccccc2OC(C)C)CC1` [Compound 3, 1-(6-ethoxycarbonylhexyl)-4-(o-isopropyloxyphenyl)piperazine], in data set [1] (25 μg/kg), the inhibition in vivo at 0.025 mg/kg worked out at 22.1% and the “Average low pressure retention time” value is recorded as 22.4 min. Further, in data set [2], the “Percent change in heart rate” value is given as -4.0%.
For the compound `CCOC(=O)CCCN1CCN(c2ccccc2OC)CC1` [F, reference compound], in data set [1] (25 μg/kg), the inhibition in vivo at 0.025 mg/kg worked out at 15.2% and the “Average low pressure retention time” value was determined as 8.8 min. The “change in systemic blood pressure” value in data set [1] (25 μg/kg, in words) is recorded as “only temporary”. Moreover, in data set [2], the “Percent change in heart rate” value was 11.2%; the “effect on heart rate (time course)” value is “first increased the heart rate and thereafter the increased heart rate gradually returned to the normal level”.
For `COC(=O)CCCCCCN1CCN(c2ccccc2OC)CC1` [Compound 5, 1-(6-methoxycarbonylhexyl)-4-(o-methoxyphenyl)piperazine], in data set [1] (25 μg/kg), the inhibition in vivo at 0.025 mg/kg was found to be 23.1% and the “Average low pressure retention time” value was 18.6 min. For the same compound, in data set [2], the “Percent change in heart rate” value is recorded as -2.2%.
For the compound `CCOC(=O)CCN1CCN(c2ccccc2OC)CC1` [E, reference compound], in data set [1] (25 μg/kg), the inhibition in vivo at 0.025 mg/kg came to 15.1% and the “Average low pressure retention time” value came to 6.8 min. In addition, in data set [1] (25 μg/kg, in words), the “change in systemic blood pressure” value was “only temporary”. In addition, in data set [2], the “Percent change in heart rate” value is 16.8%; the “effect on heart rate (time course)” value was “first increased the heart rate and thereafter the increased heart rate gradually returned to the normal level”.
For `COc1ccccc1N1CCN(CCCCCCCO)CC1` [D, reference compound], in data set [1] (25 μg/kg), the inhibition in vivo at 0.025 mg/kg is 14.3% and the “Average low pressure retention time” value is 22.5 min. For the same compound, in data set [2], the “Percent change in heart rate” value is recorded as -9.1%.
The matching figures for `COc1ccccc1N1CCN(CCCCCO)CC1` [B, reference compound]: 16.1%, 15.0 min and 9.9%.

The record behind these values is patent US4438115A, “Compositions and methods for treating diseases in circulatory organs” (Chugai Seiyaku Kabushiki Kaisha, priority 1980, dated 1984).
